Test results published in US10821195B2, “Compositions for therapeutics, targeted PET imaging and methods of their use” (Memorial Sloan Kettering Cancer Center, priority 2015, dated 2020).
“And” between values parts separate entries of the source, which are not always exact repeats. Identical values can stand only once.

What was measured:
[1] = Biodistribution and clearance of ^89Zr-HOPO and ^89Zr-DFO in healthy mice; format: in vivo, healthy athymic nude mice; set-up: biodistribution Spleen / biodistribution Stomach / biodistribution Large Intestine / biodistribution Small Intestine / biodistribution Kidney / biodistribution Bladder / biodistribution Muscle / biodistribution Bone / biodistribution Tail / biodistribution Blood / biodistribution Heart / biodistribution Lung / biodistribution Gall Bladder / biodistribution Liver: unit not given here
Text: Significant uptake of ^89Zr-HOPO occurs in the gall bladder and intestines as well as the kidney. […] As ^89Zr-DFO is cleared exclusively through the kidneys and not through the hepatobiliary system, it is excreted from the body faster than ^89Zr-HOPO, as evidenced by the blood clearance curve (FIG. 10). While not wishing to be bound to theory, upon conjugation to an antibody, the pharmacokinetics of a ^89Zr-HOPO complex comprising ^89Zr-HOPO and an antibody can be superseded by those of the biomacromolecule, meaning that a difference in clearance pathways between ^89Zr-HOPO and ^89Zr-DFO should not be a concern. However, over the short circulation time of the Zr-ligand complexes, neither DFO nor HOPO show any signs of instability or bone accumulation.

[2] = EDTA transchelation challenge of ^89Zr complexes; format: physicochemical; conditions: 50-fold excess of EDTA, 37° C., various pHs, 7 days
Text: (§1) In contrast, ^89Zr-HOPO is shown to be approximately impervious to the EDTA. […] This represents a significant improvement in the stability of the Zr-ligand complex at lower pH. […] Initially activity is seen in the bladder, gall bladder, and intestines.

FIG. 2 = assay: FIG. 2
Text: Table printed on a drawing sheet, FIG. 2
as §1
First reader's note: Cell hatching encodes the percent-intact class given in the legend; the values show stability of the radiometal-chelator complexes against EDTA transchelation.

[3] = Stability of ^89Zr complexes in human serum at 37° C. for 7 d (ITLC, SEC); conditions: bare ligand complexes, one week
Experimental: Seven day old samples of the Zr-ligand complexes were run down a size exclusion column to differentiate protein and ligand.
Serum stability and immunoreactivity of ^89Zr-complexes were evaluated. To determine the stability in serum, ^89Zr-complexes were incubated in human serum at 37° C. for 7 d. The percentage of intact species was monitored by ITLC (Table 9).
^89Zr-ligand and ^89Zr-ligand-antibody complexes were prepared according to the radiolabeling protocol as described above. For each ^89Zr complex, samples were made consisting of 900 μL human serum and 100 μL of the ^89Zr species and were placed in a heat block at 37° C. with agitation. Samples were monitored using radio-TLC before being added to the serum and then after 1 week of incubation. The stability of the complexes was measured as the percentage of ^89Zr that was retained at the origin of the ITLC strip and therefore still intact.

For `CC(=O)N1CCCCCNC(=O)CCC(=O)N2CCCCCNC(=O)CCC(=O)N(CCCCCN)[O][89Zr+]([O]1)[O]2` [^89Zr-DFO], the “biodistribution Bladder” value ([1]; 10 min) was 2.50 ± 0.48, the “biodistribution Blood” value ([1]; 10 min) was 5.11 ± 0.90 and the “biodistribution Bone” value ([1]; 10 min) was 0.43 ± 0.10. For the same molecule, the “biodistribution Gall Bladder” value ([1]; 10 min) was 1.57 ± 0.25, the “biodistribution Heart” value ([1]; 10 min) was 2.17 ± 0.62 and the “biodistribution Kidney” value ([1]; 10 min) was 14.44 ± 5.88. The “biodistribution Large Intestine” value ([1]; 10 min) was 0.43 ± 0.13, the “biodistribution Liver” value ([1]; 10 min) was 0.88 ± 0.49 and the “biodistribution Lung” value ([1]; 10 min) was 2.16 ± 1.08. The “biodistribution Muscle” value ([1]; 10 min) was 0.73 ± 0.56, the “biodistribution Small Intestine” value ([1]; 10 min) was 0.94 ± 0.16 and the “biodistribution Spleen” value ([1]; 10 min) was 0.37 ± 0.22. The “biodistribution Stomach” value ([1]; 10 min) was 0.62 ± 0.28, the “biodistribution Tail” value ([1]; 10 min) was 5.13 ± 2.92 and the “biodistribution Bladder” value ([1]; 1 h) was 2.47 ± 1.30. For the same molecule, the “biodistribution Blood” value ([1]; 1 h) was 0.10 ± 0.04, the “biodistribution Bone” value ([1]; 1 h) was 0.07 ± 0.04 and the “biodistribution Gall Bladder” value ([1]; 1 h) was 0.47 ± 0.14. The “biodistribution Heart” value ([1]; 1 h) was 0.06 ± 0.02, the “biodistribution Kidney” value ([1]; 1 h) was 1.39 ± 0.55 and the “biodistribution Large Intestine” value ([1]; 1 h) was 0.02 ± 0.01. For the same molecule, the “biodistribution Liver” value ([1]; 1 h) was 0.24 ± 0.07, the “biodistribution Lung” value ([1]; 1 h) was 0.14 ± 0.04 and the “biodistribution Muscle” value ([1]; 1 h) was 0.02 ± 0.01. The “biodistribution Small Intestine” value ([1]; 1 h) was 0.35 ± 0.17, the “biodistribution Spleen” value ([1]; 1 h) was 0.06 ± 0.02 and the “biodistribution Stomach” value ([1]; 1 h) was 1.10 ± 0.51. For the same molecule, the “biodistribution Tail” value ([1]; 1 h) was 0.26 ± 0.05, the “biodistribution Bladder” value ([1]; 4 h) was 1.22 ± 0.77 and the “biodistribution Blood” value ([1]; 4 h) was 0.03 ± 0.01. The “biodistribution Bone” value ([1]; 4 h) was 0.04 ± 0.02, the “biodistribution Gall Bladder” value ([1]; 4 h) was 0.26 ± 0.15 and the “biodistribution Heart” value ([1]; 4 h) was 0.03 ± 0.01. The “biodistribution Kidney” value ([1]; 4 h) was 1.10 ± 0.44, the “biodistribution Large Intestine” value ([1]; 4 h) was 0.62 ± 0.55 and the “biodistribution Liver” value ([1]; 4 h) was 0.12 ± 0.03. For the same molecule, the “biodistribution Lung” value ([1]; 4 h) was 0.04 ± 0.02, the “biodistribution Muscle” value ([1]; 4 h) was 0.01 ± 0.01 and the “biodistribution Small Intestine” value ([1]; 4 h) was 0.04 ± 0.02. For the same molecule, the “biodistribution Spleen” value ([1]; 4 h) was 0.03 ± 0.01, the “biodistribution Stomach” value ([1]; 4 h) was 0.06 ± 0.02 and the “biodistribution Tail” value ([1]; 4 h) was 0.14 ± 0.08. The “biodistribution Bladder” value ([1]; 12 h) was 0.69 ± 0.31, the “biodistribution Blood” value ([1]; 12 h) was 0.01 ± 0.00 and the “biodistribution Bone” value ([1]; 12 h) was 0.03 ± 0.01. For the same molecule, the “biodistribution Gall Bladder” value ([1]; 12 h) was 0.16 ± 0.14, the “biodistribution Heart” value ([1]; 12 h) was 0.02 ± 0.00 and the “biodistribution Kidney” value ([1]; 12 h) was 0.36 ± 0.13. The “biodistribution Large Intestine” value ([1]; 12 h) was 0.07 ± 0.05, the “biodistribution Liver” value ([1]; 12 h) was 0.06 ± 0.02 and the “biodistribution Lung” value ([1]; 12 h) was 0.02 ± 0.01. The “biodistribution Muscle” value ([1]; 12 h) was 0.01 ± 0.00, the “biodistribution Small Intestine” value ([1]; 12 h) was 0.01 ± 0.01 and the “biodistribution Spleen” value ([1]; 12 h) was 0.02 ± 0.01. For the same molecule, the “biodistribution Stomach” value ([1]; 12 h) was 0.01 ± 0.00, the “biodistribution Tail” value ([1]; 12 h) was 0.13 ± 0.05 and the “biodistribution Bladder” value ([1]; 24 h) was 0.56 ± 0.41. The “biodistribution Blood” value ([1]; 24 h) was 0.02 ± 0.02, the “biodistribution Bone” value ([1]; 24 h) was 0.06 ± 0.01 and the “biodistribution Gall Bladder” value ([1]; 24 h) was 0.23 ± 0.21. The “biodistribution Heart” value ([1]; 24 h) was 0.02 ± 0.01, the “biodistribution Kidney” value ([1]; 24 h) was 1.12 ± 0.33 and the “biodistribution Large Intestine” value ([1]; 24 h) was 0.02 ± 0.01. The “biodistribution Liver” value ([1]; 24 h) was 0.11 ± 0.02, the “biodistribution Lung” value ([1]; 24 h) was 0.04 ± 0.01 and the “biodistribution Muscle” value ([1]; 24 h) was 0.01 ± 0.00. The “biodistribution Small Intestine” value ([1]; 24 h) was 0.02 ± 0.01, the “biodistribution Spleen” value ([1]; 24 h) was 0.02 ± 0.01 and the “biodistribution Stomach” value ([1]; 24 h) was 0.01 ± 0.01. For the same molecule, the “biodistribution Tail” value ([1]; 24 h) was 0.08 ± 0.02, the clearance route ([1]; healthy mice) was “clears exclusively through the kidneys” and the “stability to transchelation by EDTA” value [2] was “susceptible to transchelation”. The “% INTACT STARTING SPECIES BY INCUBATION TIME | 1 h” value (FIG. 2) was 99.9±0.2% and 97.1±0.8% and 86.6±1.5%, the “% INTACT STARTING SPECIES BY INCUBATION TIME | 3 h” value (FIG. 2) was 99.3±0.6% and 98.8±0.9% and 98.7±0.8% and 96.2±0.6% and 90.7±1.7% and 55.7±3.8% and the “stability in human serum (ITLC and SEC)” value [3] was “stable in serum over 7 days”.
